Assay results as given in patent US10676504B2 (Colorado State University Research Foundation, priority 2015, dated 2020).
Like-named read-outs stand apart in the source and are kept apart here.

Legend:
melanoma cell lines [1] = assay: NCI 60 one-dose screen; format: cell-based
renal cancer cell lines [2] = assay: NCI 60 one-dose screen; format: cell-based; conditions: of the 6 renal
CNS cancer cell lines [3] = assay: cells; conditions: read-out: Average Concentration (M), LC50, CNS
Description: (§1) All compounds submitted for screening were initially tested at a single high dose (10^-5 M) against the fill NCI 60 cell panel. Only compounds which satisfied pre-determined threshold inhibition criteria in a minimum number of cell lines progressed to a second round of testing utilizing a more comprehensive 5-dose inhibition assay. The threshold inhibition criteria for progression to the 5-dose assays were selected to efficiently capture compounds with anti-proliferative activity based on historical DTP screening data.
(§2) Concentrations for G150, IC50, TGI, and LC50 were calculated for all cell lines tested, and heat plots were prepared.

CNS cancer cell lines [4] = test system: CNS cancer cell lines
Description: as §1, §2

renal cancer cell lines [5] = assay: cells; conditions: read-out: Average Concentration (M), LC50, Renal
Description: as §1, §2

NCI 60 cell panel = format: cell-based; conditions: one-dose
Description: A) Eight compounds were submitted to the National Cancer Institute (NCI) 60 tumor cell line drug discovery program (DTP) for anticancer screening.
as §1

colon cancer cell lines [6] = assay: NCI 60 one-dose screen; format: cell-based; conditions: of the 7 colon
[7] = test system: ovarian cancer cell lines; assay: NCI 60 one-dose screen; format: cell-based; conditions: of the 7 ovarian
[8] = test system: ovarian cancer cell lines
Description: as §1, §2

renal cancer cell lines [9] = test system: renal cancer cell lines
Description: as §1, §2

[10] = test system: breast cancer cells lines; assay: NCI 60 one-dose screen; format: cell-based; conditions: of the 6 breast
CNS cancer cell lines [11] = assay: NCI 60 one-dose screen; format: cell-based; conditions: of the 6 CNS
[12] = test system: ovarian cancer cell lines; assay: cells; conditions: read-out: Average Concentration (M), LC50, Ovarian
Description: as §1, §2

colon cancer cell lines [13] = assay: cells; conditions: read-out: Average Concentration (M), LC50, Colon
Description: as §1, §2

colon cancer cell lines [14] = test system: colon cancer cell lines
Description: as §1, §2

melanoma cell lines [15] = test system: melanoma cell lines
Description: as §1, §2

NCI-60 cancer cell lines [16] = assay: cells
Description: as §1, §2

NCI-60 cancer cell lines [17] = conditions: five-dose
Description: as §1, §2

melanoma cell lines [18] = assay: cells; conditions: read-out: Average Concentration (M), LC50, Melanoma
Description: as §1, §2

[19] = test system: non-small cell lung cancer cell lines; assay: NCI 60 one-dose screen; format: cell-based; conditions: of the 9 cell lines

Compound: CCCCCCCC(=O)SCC/C=C/[C@@H]1CC(=O)NCc2nc(co2)C2=N[C@@](C)(CS2)C(=O)N[C@@H](C(C)C)C(=O)O1 [compound of formula D]
- lethality in select melanoma cell lines (melanoma cell lines [1]; one-dose studies): > 90%
- cell lines with some level of lethality (melanoma cell lines [1]; one-dose, of the 9 melanoma): 8
- cell lines with some level of lethality (renal cancer cell lines [2]): 4
- CC50 (CNS cancer cell lines [3]): 1.95e-05 M
- Total Impacted Cell Lines (n), LC50, CNS (CNS cancer cell lines [4]): 1
- Percent of Cell Lines Impacted (%), LC50, CNS (CNS cancer cell lines [4]; five-dose): 20%
- CC50 (renal cancer cell lines [5]): 1.17e-05 M
- percent of NCI cell lines with some level of lethality (NCI 60 cell panel; 58 cell lines tested): 55%
- NCI cell lines with some level of lethality (NCI 60 cell panel; of 58 cell lines tested): 32
- cell lines with some level of lethality (colon cancer cell lines [6]): 4
- cell lines with some level of lethality [7]: 4
- Total Impacted Cell Lines (n), LC50, Ovarian [8]: 1
- Percent of Cell Lines Impacted (%), LC50, Ovarian ([8]; five-dose): 14%
- Total Impacted Cell Lines (n), LC50, Renal (renal cancer cell lines [9]): 2
- Percent of Cell Lines Impacted (%), LC50, Renal (renal cancer cell lines [9]; five-dose): 25%
- cell lines with some level of lethality [10]: 3
- cell lines with some level of lethality (CNS cancer cell lines [11]): 2
- CC50 [12]: 2.34e-06 M
- CC50 (colon cancer cell lines [13]): 1.47e-06 M
- Total Impacted Cell Lines (n), LC50, Colon (colon cancer cell lines [14]): 2
- Percent of Cell Lines Impacted (%), LC50, Colon (colon cancer cell lines [14]; five-dose): 29%
- Total Impacted Cell Lines (n), LC50, Melanoma (melanoma cell lines [15]): 3
- Percent of Cell Lines Impacted (%), LC50, Melanoma (melanoma cell lines [15]; five-dose): 38%
- GI50 (NCI-60 cancer cell lines [16]; read-out: Average Concentration (M), GI50): 3.83e-08 M
- CC50 (NCI-60 cancer cell lines [16]; read-out: Average Concentration (M), LC50): 5.48e-06 M
- GI50 (NCI-60 cancer cell lines [16]; read-out: GI50 concentrations (M), order of magnitude): 1e-08 M
- CC50 (NCI-60 cancer cell lines [16]; read-out: LC50 concentrations, order of magnitude): 1e-06 M
- Percent of Cell Lines Impacted (%), GI50 (NCI-60 cancer cell lines [17]; 50% Growth Inhibition): 100%
- Percent of Cell Lines Impacted (%), LC50 (NCI-60 cancer cell lines [17]; 50% Lethal Concentration reached): 16%
- Percent of Cell Lines Impacted (%), TGI (NCI-60 cancer cell lines [17]; Total Growth Inhibition): 67%
- Total Impacted Cell Lines (n), TGI (NCI-60 cancer cell lines [17]; Total Growth Inhibition): 38
- Average Concentration (M), TGI (NCI-60 cancer cell lines [17]; average over impacted cell lines): 4.57e-06 M
- CC50 (melanoma cell lines [18]): 3.72e-07 M
- cell lines with some level of lethality [19]: 7
